Experimental data: ChEMBL document CHEMBL4196124, “Reverse Hydroxamate Inhibitors of Bone Morphogenetic Protein 1” (ACS Med Chem Lett, 2018)

How the values were obtained:
[1] = molecular target: T1, Bone morphogenetic protein 1 (Homo sapiens, UniProt P13497); assay: Inhibition of recombinant human N-terminal 6His/flag-tagged BMP1 (121 to 721 residues) expressed in CHO cells using ((5-FAM)-ELIDQYDVQRDDSSDGSLED-K(5,6 TAMRA)-CONH2) as substrate preincubated for 10 mins followed by substrate addition measured after 60 mins
T1 sequence (P13497 whole entry): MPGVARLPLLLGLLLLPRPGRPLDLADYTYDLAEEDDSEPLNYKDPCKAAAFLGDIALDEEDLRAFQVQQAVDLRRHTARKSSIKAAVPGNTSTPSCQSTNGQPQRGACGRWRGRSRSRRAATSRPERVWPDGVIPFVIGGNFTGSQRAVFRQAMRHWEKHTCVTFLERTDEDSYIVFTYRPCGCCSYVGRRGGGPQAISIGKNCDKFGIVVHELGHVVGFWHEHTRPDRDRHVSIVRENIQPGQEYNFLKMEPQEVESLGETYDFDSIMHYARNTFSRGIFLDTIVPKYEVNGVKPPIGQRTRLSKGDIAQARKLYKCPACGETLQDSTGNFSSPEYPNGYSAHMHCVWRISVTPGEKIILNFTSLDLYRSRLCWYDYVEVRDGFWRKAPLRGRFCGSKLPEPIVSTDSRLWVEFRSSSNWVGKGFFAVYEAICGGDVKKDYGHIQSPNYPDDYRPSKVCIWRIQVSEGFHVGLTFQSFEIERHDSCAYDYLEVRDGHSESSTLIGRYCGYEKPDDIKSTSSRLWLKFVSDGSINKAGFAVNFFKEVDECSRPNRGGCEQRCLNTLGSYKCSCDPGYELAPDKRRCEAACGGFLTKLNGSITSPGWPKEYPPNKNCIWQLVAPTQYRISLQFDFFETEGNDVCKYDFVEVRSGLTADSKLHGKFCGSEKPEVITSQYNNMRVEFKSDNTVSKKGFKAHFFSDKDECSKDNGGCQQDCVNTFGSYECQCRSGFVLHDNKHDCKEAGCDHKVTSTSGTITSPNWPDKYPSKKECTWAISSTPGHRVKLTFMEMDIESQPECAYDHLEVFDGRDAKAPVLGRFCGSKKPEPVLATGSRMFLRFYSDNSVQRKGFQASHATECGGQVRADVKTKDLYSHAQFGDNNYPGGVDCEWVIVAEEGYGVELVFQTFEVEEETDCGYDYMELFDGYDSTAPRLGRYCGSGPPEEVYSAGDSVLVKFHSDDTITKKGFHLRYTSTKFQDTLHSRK

[2] = molecular target: Macrophage metalloelastase (Homo sapiens, UniProt P39900); assay: Inhibition of MMP12 (unknown origin)
Chain of Macrophage metalloelastase (P39900 whole entry): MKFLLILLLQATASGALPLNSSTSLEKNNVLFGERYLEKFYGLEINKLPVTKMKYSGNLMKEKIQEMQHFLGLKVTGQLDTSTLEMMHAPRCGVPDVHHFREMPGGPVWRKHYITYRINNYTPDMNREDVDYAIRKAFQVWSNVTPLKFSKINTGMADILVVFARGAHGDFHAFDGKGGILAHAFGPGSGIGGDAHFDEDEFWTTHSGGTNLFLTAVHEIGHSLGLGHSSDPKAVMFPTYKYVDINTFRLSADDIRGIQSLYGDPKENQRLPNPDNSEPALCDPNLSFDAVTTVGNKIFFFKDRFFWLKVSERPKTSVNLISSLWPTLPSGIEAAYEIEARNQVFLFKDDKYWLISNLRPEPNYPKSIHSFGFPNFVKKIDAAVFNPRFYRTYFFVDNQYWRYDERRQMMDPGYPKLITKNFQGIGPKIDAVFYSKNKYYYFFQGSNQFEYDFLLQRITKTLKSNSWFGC

Rattus norvegicus = assay: Dose normalized AUC in po dosed rat; assay type: ADME, organism-based; details: in vivo
Homo sapiens [3] = species: Homo sapiens; assay: Selectivity ratio of IC50 for human ACE1 to IC50 for recombinant human N-terminal 6His/flag-tagged BMP1 (121 to 721 residues) expressed in CHO cells; assay type: cell-based
Homo sapiens [4] = species: Homo sapiens; assay: Selectivity ratio of IC50 for ACE2 (unknown origin) to IC50 for recombinant human N-terminal 6His/flag-tagged BMP1 (121 to 721 residues) expressed in CHO cells; assay type: cell-based
Homo sapiens [5] = species: Homo sapiens; assay: Selectivity ratio of IC50 for ADAM9 (unknown origin) to IC50 for recombinant human N-terminal 6His/flag-tagged BMP1 (121 to 721 residues) expressed in CHO cells; assay type: cell-based
Homo sapiens [6] = species: Homo sapiens; assay: Selectivity ratio of IC50 for ADAM10 (unknown origin) to IC50 for recombinant human N-terminal 6His/flag-tagged BMP1 (121 to 721 residues) expressed in CHO cells; assay type: cell-based
Homo sapiens [7] = species: Homo sapiens; assay: Selectivity ratio of IC50 for recombinant human C-terminal MMP1 (81 to 249 residues) catalytic domain expressed in Escherichia coli to IC50 for recombinant human N-terminal 6His/flag-tagged BMP1 (121 to 721 residues) expressed in CHO cells
Homo sapiens [8] = species: Homo sapiens; assay: Selectivity ratio of IC50 for recombinant human C-terminal MMP2 (81 to 423 residues) catalytic domain expressed in Escherichia coli to IC50 for recombinant human N-terminal 6His/flag-tagged BMP1 (121 to 721 residues) expressed in CHO cells
Homo sapiens [9] = species: Homo sapiens; assay: Selectivity ratio of IC50 for recombinant human C-terminal MMP3 (83 to 255 residues) catalytic domain expressed in Escherichia coli to IC50 for recombinant human N-terminal 6His/flag-tagged BMP1 (121 to 721 residues) expressed in CHO cells
Homo sapiens [10] = species: Homo sapiens; assay: Selectivity ratio of IC50 for recombinant human C-terminal MMP7 (78 to 250 residues) catalytic domain expressed in Escherichia coli to IC50 for recombinant human N-terminal 6His/flag-tagged BMP1 (121 to 721 residues) expressed in CHO cells
Homo sapiens [11] = species: Homo sapiens; assay: Selectivity ratio of IC50 for MMP8 (unknown origin) to IC50 for recombinant human N-terminal 6His/flag-tagged BMP1 (121 to 721 residues) expressed in CHO cells; assay type: cell-based
Homo sapiens [12] = species: Homo sapiens; assay: Selectivity ratio of IC50 for recombinant human C-terminal MMP9 (88 to 438 residues) catalytic domain expressed in Escherichia coli to IC50 for recombinant human N-terminal 6His/flag-tagged BMP1 (121 to 721 residues) expressed in CHO cells
Homo sapiens [13] = species: Homo sapiens; assay: Selectivity ratio of IC50 for MMP10 (unknown origin) to IC50 for recombinant human N-terminal 6His/flag-tagged BMP1 (121 to 721 residues) expressed in CHO cells; assay type: cell-based
Homo sapiens [14] = species: Homo sapiens; assay: Selectivity ratio of IC50 for recombinant human C-terminal MMP12 (84 to 255 residues) catalytic domain expressed in Escherichia coli to IC50 for recombinant human N-terminal 6His/flag-tagged BMP1 (121 to 721 residues) expressed in CHO cells
Homo sapiens [15] = species: Homo sapiens; assay: Selectivity ratio of IC50 for recombinant human C-terminal MMP13 (85 to 255 residues) catalytic domain expressed in Escherichia coli to IC50 for recombinant human N-terminal 6His/flag-tagged BMP1 (121 to 721 residues) expressed in CHO cells
Homo sapiens [16] = species: Homo sapiens; assay: Selectivity ratio of IC50 for recombinant human C-terminal MMP14 (Tyr92 to Arg278 residues) catalytic domain expressed in Escherichia coli to IC50 for recombinant human N-terminal 6His/flag-tagged BMP1 (121 to 721 residues) expressed in CHO cells
Homo sapiens [17] = species: Homo sapiens; assay: Selectivity ratio of IC50 for recombinant human His-tagged TACE (1 to 671 residues) expressed in insect cells to IC50 for recombinant human N-terminal 6His/flag-tagged BMP1 (121 to 721 residues) expressed in CHO cells
Cytochrome P450 3A4 = Cytochrome P450 3A4 (Homo sapiens, UniProt P08684); assay: Time dependent inhibition of CYP3A4 (unknown origin) at 33 uM measured over 15 mins relative to control; assay type: ADME; details: 0.25 h
Chain of Cytochrome P450 3A4 (P08684 whole entry): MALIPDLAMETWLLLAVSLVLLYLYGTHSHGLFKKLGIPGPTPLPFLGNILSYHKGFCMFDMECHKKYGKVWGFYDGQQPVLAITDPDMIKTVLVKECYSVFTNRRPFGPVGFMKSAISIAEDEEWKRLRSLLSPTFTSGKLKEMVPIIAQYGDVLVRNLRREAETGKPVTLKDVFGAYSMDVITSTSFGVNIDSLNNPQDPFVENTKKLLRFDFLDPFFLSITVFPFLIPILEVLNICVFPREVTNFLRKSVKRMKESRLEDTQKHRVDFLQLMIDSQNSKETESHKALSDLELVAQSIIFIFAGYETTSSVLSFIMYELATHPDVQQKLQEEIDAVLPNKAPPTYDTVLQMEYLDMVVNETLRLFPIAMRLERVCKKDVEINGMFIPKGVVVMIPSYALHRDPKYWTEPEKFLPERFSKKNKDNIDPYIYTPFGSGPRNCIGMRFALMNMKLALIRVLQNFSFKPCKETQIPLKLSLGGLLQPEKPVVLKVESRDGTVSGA

CCCCC[C@@H](C(=O)NCNC(=O)c1ccc(-c2ccccc2)o1)[C@@H](CC)N(O)C=O
IC50 [1]: 0.032 µM | IC50 [2]: 10 µM | AUC/dose (Rattus norvegicus): 1.6 kg·h/L | Ratio IC50 (Homo sapiens [3]): > 30 | Ratio IC50 (Homo sapiens [4]): > 30 | Ratio IC50 (Homo sapiens [5]): > 30 | Ratio IC50 (Homo sapiens [6]): > 30 | Ratio IC50 (Homo sapiens [7]): > 30 | Ratio IC50 (Homo sapiens [8]): > 30 | Ratio IC50 (Homo sapiens [9]): > 30 | Ratio IC50 (Homo sapiens [10]): > 30 | Ratio IC50 (Homo sapiens [11]): > 30 | Ratio IC50 (Homo sapiens [12]): > 30 | Ratio IC50 (Homo sapiens [13]): > 30 | Ratio IC50 (Homo sapiens [14]): > 30 | Ratio IC50 (Homo sapiens [15]): > 30 | Ratio IC50 (Homo sapiens [16]): > 30 | Ratio IC50 (Homo sapiens [17]): > 30 | fold change (FC) (Cytochrome P450 3A4): 4.3
